Test results taken from BindingDB's records for doi:10.1021/jm00045a022 (National Institute of Diabetes and Digestive and Kidney …, 1994).

Assay: Inhibition of [3H](+)-pentazocine binding to sigma receptor of guinea pig brain

Compound	Ki [µM]
COc1cccc([C@]23CCN(C)[C@H](CC(=O)C2)C3)c1	0.762
C[N+]1(C)CCC2(c3cccc(O)c3)CC(=O)C(=Cc3ccccc3)C1C2 (configuration not stated) [5-(3-Hydroxy-phenyl)-2,2-dimethyl-7-oxo-8-[1-phenyl-meth-(E)-ylidene]-2-azonia-bicyclo[3.3.1]nonane; iodide]	5.4
